Data reported in ChEMBL document CHEMBL1201862, “PubChem BioAssay data set” (2004).
Activity calls are given as the source filed them.

How the values were obtained:
[1] = A Cell-Based Confirmatory Screen for Compounds that Inhibit VEEV, TC-83 (5).; assay type: functional
[2] = A Cell-Based Confirmatory Screen for Compounds that Inhibit VEEV TC-83 (4).; assay type: functional
[3] = suppression of HIF-dependent reporter luminescence – cell-based, dry powder samples, 2158-07, ARNT-TACC3 inhibitor project, dose response (AID 720561); assay type: functional
[4] = cytotoxicity in MITF-independent A375 cells – cell-based, CellTiter-Glo luminescence, dry powder, set 4, counter-screen for MITF inhibitor project, dose response (AID 624364); assay type: functional; settings: A-375;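 further: A375 melanoma cells are MITF independent so this is a counter screen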
[5] = viability loss in MITF-independent A375 cells – cell-based, CellTiter-Glo luminescence, dry powder, set 2, counter-screen for MITF inhibitor project, dose response (AID 624489); assay type: functional; settings: A-375;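 further: actives are compounds lowering A375 viability meaning general cytotoxicity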
[6] = target: Protein disulfide-isomerase (Homo sapiens, UniProt P07237); assay: inhibition of PDI-mediated insulin reduction – biochemical, turbidity, dry powder samples, set 2, confirmation (AID 652146)
Sequence of Protein disulfide-isomerase (P07237 whole entry): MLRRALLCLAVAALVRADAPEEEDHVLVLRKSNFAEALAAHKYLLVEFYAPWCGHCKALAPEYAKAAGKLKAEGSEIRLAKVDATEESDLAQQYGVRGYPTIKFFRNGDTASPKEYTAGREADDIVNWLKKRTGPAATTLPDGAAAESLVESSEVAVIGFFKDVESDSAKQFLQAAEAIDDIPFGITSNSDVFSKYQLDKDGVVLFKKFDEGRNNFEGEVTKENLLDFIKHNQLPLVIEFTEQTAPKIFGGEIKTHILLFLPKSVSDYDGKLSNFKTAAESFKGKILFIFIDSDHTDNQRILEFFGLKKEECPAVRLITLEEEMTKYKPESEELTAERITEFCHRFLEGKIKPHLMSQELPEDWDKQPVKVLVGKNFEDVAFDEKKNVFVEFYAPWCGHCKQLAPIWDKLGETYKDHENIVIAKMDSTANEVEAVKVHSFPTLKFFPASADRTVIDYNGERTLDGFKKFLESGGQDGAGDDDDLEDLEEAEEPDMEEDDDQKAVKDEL

[7] = A Cell-Based Confirmatory Screen for Compounds that Inhibit VEEV, TC-83 (8).; assay type: functional
[8] = toxicity toward HepG2 hepatoma cells – cell-based, dry powder samples, cytotoxicity control, dose response (AID 720568); assay type: functional
[9] = target: Fatty acid synthase (Homo sapiens, UniProt P49327); assay: inhibition of human FAS-TE enzyme activity – biochemical, endpoint fluorescence intensity, powder samples, SAR follow-up (AID 652164); assay type: functional
Sequence of Fatty acid synthase (P49327 whole entry): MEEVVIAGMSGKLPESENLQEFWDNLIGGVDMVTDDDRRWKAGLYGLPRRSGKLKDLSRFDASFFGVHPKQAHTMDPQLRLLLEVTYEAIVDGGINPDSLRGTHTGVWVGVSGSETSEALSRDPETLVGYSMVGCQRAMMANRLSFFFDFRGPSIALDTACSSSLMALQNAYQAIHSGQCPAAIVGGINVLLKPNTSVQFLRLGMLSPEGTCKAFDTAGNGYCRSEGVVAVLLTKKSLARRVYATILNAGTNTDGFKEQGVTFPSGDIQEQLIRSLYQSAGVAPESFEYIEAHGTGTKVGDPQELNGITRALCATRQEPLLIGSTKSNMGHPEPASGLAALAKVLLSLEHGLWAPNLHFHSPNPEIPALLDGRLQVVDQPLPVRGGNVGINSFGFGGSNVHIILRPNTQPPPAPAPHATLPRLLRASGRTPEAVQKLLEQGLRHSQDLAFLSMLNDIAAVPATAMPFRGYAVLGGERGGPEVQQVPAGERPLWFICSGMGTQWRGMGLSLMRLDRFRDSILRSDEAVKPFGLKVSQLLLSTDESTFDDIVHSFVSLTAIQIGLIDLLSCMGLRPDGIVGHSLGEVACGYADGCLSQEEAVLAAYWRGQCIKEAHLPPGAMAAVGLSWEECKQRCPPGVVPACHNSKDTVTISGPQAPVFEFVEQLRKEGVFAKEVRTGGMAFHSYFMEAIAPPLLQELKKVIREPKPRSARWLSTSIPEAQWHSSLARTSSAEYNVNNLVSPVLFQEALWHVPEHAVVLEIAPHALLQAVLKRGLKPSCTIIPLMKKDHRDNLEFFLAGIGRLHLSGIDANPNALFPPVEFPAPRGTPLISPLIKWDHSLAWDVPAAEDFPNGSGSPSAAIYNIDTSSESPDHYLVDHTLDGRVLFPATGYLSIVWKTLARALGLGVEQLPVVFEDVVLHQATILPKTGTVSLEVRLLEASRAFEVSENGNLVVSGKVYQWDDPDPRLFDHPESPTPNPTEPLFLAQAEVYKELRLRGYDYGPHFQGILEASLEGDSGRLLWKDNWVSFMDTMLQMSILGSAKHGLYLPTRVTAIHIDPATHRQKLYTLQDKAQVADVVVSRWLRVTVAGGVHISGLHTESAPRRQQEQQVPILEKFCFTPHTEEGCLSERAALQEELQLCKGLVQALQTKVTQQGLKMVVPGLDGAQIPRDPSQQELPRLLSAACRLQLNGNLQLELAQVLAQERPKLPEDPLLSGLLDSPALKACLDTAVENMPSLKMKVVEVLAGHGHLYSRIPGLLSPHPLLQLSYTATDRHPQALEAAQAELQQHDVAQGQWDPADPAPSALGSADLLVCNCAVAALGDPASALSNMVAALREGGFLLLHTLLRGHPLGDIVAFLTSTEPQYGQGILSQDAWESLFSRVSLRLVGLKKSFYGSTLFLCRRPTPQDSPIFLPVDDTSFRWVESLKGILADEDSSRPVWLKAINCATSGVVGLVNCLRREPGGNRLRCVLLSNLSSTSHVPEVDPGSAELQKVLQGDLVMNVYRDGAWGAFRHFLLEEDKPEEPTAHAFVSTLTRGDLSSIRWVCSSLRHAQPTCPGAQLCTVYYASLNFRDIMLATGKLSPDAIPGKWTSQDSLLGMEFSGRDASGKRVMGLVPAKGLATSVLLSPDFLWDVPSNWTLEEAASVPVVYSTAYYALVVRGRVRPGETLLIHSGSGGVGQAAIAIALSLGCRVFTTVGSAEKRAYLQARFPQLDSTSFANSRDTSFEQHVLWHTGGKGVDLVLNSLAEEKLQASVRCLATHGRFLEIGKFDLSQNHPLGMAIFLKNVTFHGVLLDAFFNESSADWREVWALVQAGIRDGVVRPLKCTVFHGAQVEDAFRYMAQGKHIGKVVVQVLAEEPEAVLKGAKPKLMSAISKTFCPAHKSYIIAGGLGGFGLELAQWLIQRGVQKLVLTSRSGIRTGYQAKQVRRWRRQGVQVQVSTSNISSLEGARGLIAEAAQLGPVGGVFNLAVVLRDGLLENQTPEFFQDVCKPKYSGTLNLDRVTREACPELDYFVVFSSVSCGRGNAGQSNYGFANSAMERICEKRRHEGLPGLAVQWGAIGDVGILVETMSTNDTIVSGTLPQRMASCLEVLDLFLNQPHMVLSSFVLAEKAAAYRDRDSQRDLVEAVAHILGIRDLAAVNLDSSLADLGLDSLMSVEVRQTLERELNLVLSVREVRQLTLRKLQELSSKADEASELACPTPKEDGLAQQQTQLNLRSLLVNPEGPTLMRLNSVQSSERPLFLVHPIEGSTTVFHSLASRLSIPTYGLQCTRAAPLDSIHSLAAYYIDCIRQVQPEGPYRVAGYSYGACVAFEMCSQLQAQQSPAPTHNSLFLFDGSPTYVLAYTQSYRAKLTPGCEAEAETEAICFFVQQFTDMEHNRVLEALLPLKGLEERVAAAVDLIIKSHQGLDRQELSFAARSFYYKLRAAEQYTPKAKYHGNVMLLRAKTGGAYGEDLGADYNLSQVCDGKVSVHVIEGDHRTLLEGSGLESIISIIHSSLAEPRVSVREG

[10] = test system: HEK293; assay: EBV LMP1 TES2 canonical NF-kB signalling blockers – cell-based, HEK293, luciferase, cherry-pick, dose response (AID 588343); assay type: functional; settings: Homo sapiens
[11] = target: Heat shock protein HSP 90-alpha (Homo sapiens, UniProt P07900); assay type: functional, organism-based
[12] = reduction of Shn3 3'UTR-driven luciferase in osteoblasts – cell-based, Clone20 osteoblasts, firefly luciferase, cherry-picked, dose response (AID 624132); assay type: functional;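 further: firefly luciferase luminescence from reporter carrying the Shn3 3'UTR in osteoblasts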
[13] = loss of viability in HepG2 cells – cell-based, CellTiter-Glo, cherry-picked, cytotoxicity control for Shn3 inhibitor project, dose response (AID 624134); assay type: functional
[14] = non-specific 3'UTR reporter inhibition in Clone20-Shn3RL – cell-based, Renilla luciferase, cherry-picked, counter-screen for Shn3 inhibitor project, dose response (AID 624133); assay type: functional
[15] = target: Paired box protein Pax-8 (Homo sapiens, UniProt Q06710); assay: PAX8 transcriptional activity inhibition in RMG-I – RMG-I cells, luciferase, cherry-pick, dose response (AID 687027); assay type: functional, cell-based;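 further: luciferase reporter driven by Pax8 target thyroperoxidase promoter measured by SteadyGlo luminescence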
Sequence of Paired box protein Pax-8 (Q06710 whole entry): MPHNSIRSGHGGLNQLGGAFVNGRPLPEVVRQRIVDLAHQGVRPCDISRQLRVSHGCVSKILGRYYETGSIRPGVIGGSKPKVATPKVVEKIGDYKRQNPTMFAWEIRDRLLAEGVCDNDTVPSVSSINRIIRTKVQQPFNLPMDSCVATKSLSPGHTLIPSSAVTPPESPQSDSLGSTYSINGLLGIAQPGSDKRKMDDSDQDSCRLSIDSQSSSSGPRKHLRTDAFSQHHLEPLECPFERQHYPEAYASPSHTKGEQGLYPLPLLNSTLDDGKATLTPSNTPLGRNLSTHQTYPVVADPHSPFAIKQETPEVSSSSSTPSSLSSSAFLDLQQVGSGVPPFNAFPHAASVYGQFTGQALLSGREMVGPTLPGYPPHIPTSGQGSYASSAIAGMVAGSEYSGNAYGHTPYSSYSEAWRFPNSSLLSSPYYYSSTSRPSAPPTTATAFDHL

[16] = inhibitors acting on PAX2 in cells – cell-based, plate reader, dry powder samples, selectivity assay for PAX8 inhibitor project, dose response (AID 743048); assay type: functional;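 further: HEK293 cells carrying a WT1 promoter luciferase reporter driven by expressed Pax2; potency is for inhibition of Pax2 driven reporter signal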
[17] = COV362 cell viability loss – plate reader, dry powder, SA12, cytotoxicity control for PAX8 inhibitor project, dose response (AID 743144); assay type: functional, cell-based
[18] = toxicity toward immortalized ovarian surface epithelium – cell-based, plate reader, dry powder samples, cytotoxicity control for PAX8 inhibitor project, dose response (AID 743045); assay type: functional
[19] = A2780 cell killing – plate reader, dry powder samples, cytotoxicity control, dose response (AID 743046); assay type: functional, cell-based
[20] = OVCAR-3 cell viability loss – plate reader, dry powder samples, PAX8 inhibitor project, dose response (AID 743044); assay type: functional, cell-based
[21] = PAX5 cellular inhibition readout – cell-based, plate reader, dry powder samples, selectivity assay for PAX8 inhibitor project, dose response (AID 743047); assay type: functional;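 further: HEK293 cells carrying a Pax5 driven CD19 promoter luciferase reporter; potency of inhibitors that lower reporter luminescence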
[22] = IGROV1 cell killing – plate reader, dry powder samples, PAX8 inhibitor project, dose response (AID 743043); assay type: functional, cell-based; settings: IGROV-1
[23] = OVCAR4 cell viability loss – plate reader, dry powder, SA11, cytotoxicity control for PAX8 inhibitor project, dose response (AID 743150); assay type: functional, cell-based; settings: OVCAR-4
[24] = COV434 cell viability loss – plate reader, dry powder, SA7, cytotoxicity control for PAX8 inhibitor project, dose response (AID 743145); assay type: functional, cell-based
[25] = OV-90 cell viability loss – plate reader, dry powder, SA8, PAX8 inhibitor project, dose response (AID 743149); assay type: functional, cell-based
[26] = PAX8-dependent cell viability loss – plate reader, dry powder, dose response (AID 743049); assay type: functional, cell-based

## CCN1CCN(Cc2nc3ccc([N+](=O)[O-])cc3c(=O)n2-c2cccc(F)c2)CC1
[1]
  IC50: 0.45 µM (active)
[2]
  IC50: 0.31 µM (active)

## Cc1nnc(NC(=O)c2ccc(S(=O)(=O)N3CCCCC3)cc2)o1
[3]
  AC50: > 100 µM (inactive)

## O=C1C(Nc2ccccc2)=C(N2CCN(c3ccccc3)CC2)C(=O)c2ccccc21
[4]
  AC50: > 70 µM (inactive)
[5]
  AC50: > 70 µM (inactive)

## C=CCOc1ccc(CN2CCC(CCOc3ccccc3)(C(=O)OCC)CC2)cc1Cl
[6]
  AC50: > 30 µM (inactive)

## O=c1c2cc([N+](=O)[O-])ccc2nc(C2CCNCC2)n1-c1ccccc1
[7]
  IC50: 3.88 µM (active)

## O=C1CCN(Cc2ccccc2)c2cc3ccccc3cc21
[8]
  AC50: > 30 µM (inactive)

## CN(C)S(=O)(=O)c1ccc(-c2csc(NC(=O)C3CCC3)n2)cc1
[9]
  IC50: 1.36 µM (active)

## CC(=O)NC(c1ccc(Cl)cc1)c1ccc2cccnc2c1O (stereo unspecified)
[10]
  AC50: 4.08 µM (active)
[11]
  AC50: 2.68 µM (active)
[12]
  AC50: 0.299 µM (active)
[13]
  AC50: 1.47 µM (active)
[14]
  AC50: 0.977 µM (active)
[15]
  AC50: 2.09 µM (active)
[16]
  AC50: 1.57 µM (active)
[17]
  AC50: 7.17 µM (active)
[18]
  AC50: 4.43 µM (active)
[19]
  AC50: 20.8 µM (active)
[20]
  AC50: 4.57 µM (active)
[21]
  AC50: 2.31 µM (active)
[22]
  AC50: 7.12 µM (active)
[23]
  AC50: 18.1 µM (active)
[24]
  AC50: 5.09 µM (active)
[25]
  AC50: 5.27 µM (active)
[26]
  AC50: 8.52 µM (active)
